From patent US7342014B2, “Diamine derivatives” (Daiichi Pharmaceutical Co., Ltd., priority 2001, dated 2008)
Where a name gives a salt, the structure may show the parent alone.

Compound	melting point
COC(=O)N1CC[C@H](NC(=O)c2cc3cc(Cl)ccc3[nH]2)[C@H](NC(=O)c2nc3c(s2)CN(C)CC3)C1 (relative stereo) (as salt: hydrochloride) [Example 129, Methyl (3R*,4S*)-4-{[(5-chloroindol-2-yl)carbonyl]amino}-3-{[(5-methyl-4,5,6,7-tetrahydrothiazolo[5,4-c]pyridin-2-yl)carbonyl]amino}piperidine-1-carboxylate hydrochloride]	248 to 253 °C (dec.)
CN1CCc2nc(C(=O)N[C@@H]3CN(C(=O)C4CCC4)CC[C@@H]3NC(=O)c3cc4cc(Cl)ccc4[nH]3)sc2C1 (relative stereo) (as salt: hydrochloride)	271 to 275 °C (dec.)
COCC(=O)N1CC[C@@H](NC(=O)c2cc3cc(Cl)ccc3[nH]2)[C@H](NC(=O)c2nc3c(s2)CN(C)CC3)C1 (as salt: hydrochloride) [Example 172, N-[(3R,4R)-4-{[(5-Chloroindol-2-yl)carbonyl]amino}-1-(2-methoxyacetyl)piperidin-3-yl]-5-methyl-4,5,6,7-tetrahydro-thiazolo[5,4-c]pyridine-2-carboxamide hydrochloride]	213 to 230 °C
COCC(=O)N1CC[C@H](NC(=O)c2cc3cc(Cl)ccc3[nH]2)[C@H](NC(=O)c2nc3c(s2)CN(C)CC3)C1 (as salt: hydrochloride) [Example 171, N-[(3R,4S)-4-{[(5-Chloroindol-2-yl)carbonyl]amino}-1-(2-methoxyacetyl)piperidin-3-yl]-5-methyl-4,5,6,7-tetrahydro-thiazolo[5,4-c]pyridine-2-carboxamide hydrochloride]	207 to 220 °C (dec.)
CN1CCc2nc(C(=O)N[C@@H]3CCN(S(C)(=O)=O)C[C@@H]3NC(=O)c3cc4cc(Cl)ccc4[nH]3)sc2C1 (relative stereo) (as salt: hydrochloride)	228 to 245 °C (dec.)
CCOC(=O)N1C[C@@H](NC(=O)c2cc3cc(Cl)ccc3[nH]2)[C@H](NC(=O)c2nc3c(s2)CN(C(C)C)CC3)C1 (as salt: hydrochloride) [Example 116, Ethyl (3R,4R)-3-{[(5-chloroindol-2-yl)carbonyl]amino}-4-{[(5-isopropyl-4,5,6,7-tetrahydrothiazolo[5,4-c]pyridin-2-yl)carbonyl]amino}pyrrolidine-1-carboxylate hydrochloride]	225 to 228 °C (dec.)
CC(=O)OC(C)(C)C(=O)N1CC[C@H](NC(=O)c2cc3cc(Cl)ccc3[nH]2)[C@H](NC(=O)c2nc3c(s2)CN(C)CC3)C1 (relative stereo) [Example 148, 2-((3R*,4S*)-4-{[(5-Chloroindol-2-yl)carbonyl]amino}-3-{[(5-methyl-4,5,6,7-tetrahydrothiazolo[5,4-c]pyridin-2-yl)carbonyl]amino}piperidin-1-yl)-1,1-dimethyl-2-oxoethyl acetate]	190 °C (dec.)
CN1CCc2nc(C(=O)N[C@@H]3CS(=O)(=O)CC[C@H]3NC(=O)c3cc4cc(Cl)ccc4[nH]3)sc2C1 (relative stereo) (as salt: hydrochloride) [Example 181, N-((3R*,4S*)-4-{[(5-Chloroindol-2-yl)carbonyl]amino}-1,1-dioxohexahydro-1-thiopyran-3-yl)-5-methyl-4,5,6,7-tetrahydrothiazolo[5,4-c]pyridine-2-carboxamide hydrochloride]	244 to 249 °C
CN1CCc2nc(C(=O)N[C@@H]3CNC[C@H]3NC(=O)c3cc4cc(Cl)ccc4[nH]3)sc2C1 (as salt: hydrochloride)	248 to 250 °C (dec.)
COCC(=O)N1CC[C@H](NC(=O)c2cc3cc(F)ccc3[nH]2)[C@H](NC(=O)c2nc3c(s2)CN(C)CC3)C1 (relative stereo) (as salt: hydrochloride)	190 to 208 °C (dec.)
CN1CCc2nc(C(=O)N[C@@H]3CN(C(=O)C4CCCC4)CC[C@@H]3NC(=O)c3cc4cc(Cl)ccc4[nH]3)sc2C1 (relative stereo) (as salt: hydrochloride)	254 to 260 °C (dec.)
CN1CCc2nc(C(=O)N[C@@H]3CN(C(=O)OC(C)(C)C)C[C@H]3NC(=O)c3cc4cc(Cl)ccc4[nH]3)sc2C1 [Example 94, tert-Butyl (3R,4R)-3-{[(5-chloroindol-2-yl)carbonyl]-amino}-4-{[(5-methyl-4,5,6,7-tetrahydrothiazolo[5,4-c]-pyridin-2-yl)carbonyl]amino}pyrrolidine-1-carboxylate]	190 to 192 °C
CN1CCc2nc(C(=O)N[C@@H]3CS(=O)(=O)CC[C@H]3NC(=O)c3cc4cc(F)ccc4[nH]3)sc2C1 (relative stereo) (as salt: hydrochloride) [Example 182, N-((3R*,4S*)-4-{[(5-Fluoroindol-2-yl)carbonyl]amino}-1,1-dioxohexahydro-1-thiopyran-3-yl)-5-methyl-4,5,6,7-tetrahydrothiazolo[5,4-c]pyridine-2-carboxamide hydrochloride]	236 to 241 °C
CN1CCc2nc(C(=O)N[C@@H]3CCS(=O)(=O)C[C@@H]3NC(=O)c3cc4cc(Cl)ccc4[nH]3)sc2C1 (relative stereo) (as salt: hydrochloride) [Example 180, N-((3R*,4R*)-3-{[(5-Chloroindol-2-yl)carbonyl]amino}-1,1-dioxohexahydro-1-thiopyran-4-yl)-5-methyl-4,5,6,7-tetrahydrothiazolo[5,4-c]pyridine-2-carboxamide hydrochloride]	242 to 247 °C
CN1CCc2nc(C(=O)N[C@@H]3CN(CCF)CC[C@@H]3NC(=O)c3cc4cc(Cl)ccc4[nH]3)sc2C1 (relative stereo) (as salt: hydrochloride) [Example 168, N-[(3R*,4S*)-4-{[(5-Chloroindol-2-yl)carbonyl]amino}-1-(2-fluoroethyl)piperidin-3-yl]-5-methyl-4,5,6,7-tetrahydro-thiazolo[5,4-c]pyridine-2-carboxamide dihydrochloride]	228 to 233 °C (dec.)
COCC(=O)N1CC[C@H](NC(=O)c2cc3cc(Cl)ccc3[nH]2)[C@H](NC(=O)c2nc3c(s2)CN(C(C)(C)CO)CC3)C1 (relative stereo) (as salt: hydrochloride)	221 to 232 °C (dec.)
CCOC(=O)N1CC[C@H](NC(=O)c2cc3cc(Cl)ccc3[nH]2)[C@H](NC(=O)c2nc3c(s2)CN(C)CC3)C1 (relative stereo) (as salt: hydrochloride) [Example 130, Ethyl (3R*,4S*)-4-{[(5-chloroindol-2-yl)carbonyl]amino}-3-{[(5-methyl-4,5,6,7-tetrahydrothiazolo[5,4-c]pyridin-2-yl)carbonyl]amino}piperidine-1-carboxylate hydrochloride]	215 to 225 °C (dec.)
CN1CCc2nc(C(=O)N[C@@H]3CN(S(C)(=O)=O)CC[C@@H]3NC(=O)c3cc4cc(Cl)ccc4[nH]3)sc2C1 (relative stereo) (as salt: hydrochloride) [Example 126, N-[(3R*,4S*)-{[(5-Chloroindol-2-yl)carbonyl]amino}-1-(methylsulfonyl)piperidin-3-yl]-5-methyl-4,5,6,7-tetrahydrothiazolo[5,4-c]pyridine-2-carboxamide hydrochloride]	225 to 230 °C (dec.)
CC(=O)N1C[C@@H](NC(=O)c2cc3cc(Cl)ccc3[nH]2)[C@H](NC(=O)c2nc3c(s2)CN(C(C)C)CC3)C1 (as salt: hydrochloride) [Example 114, N-((3R,4R)-1-Acetyl-4-{[(5-chloroindol-2-yl)carbonyl]-amino}pyrrolidin-3-yl)-5-isopropyl-4,5,6,7-tetrahydro-thiazolo[5,4-c]pyridine-2-carboxamide hydrochloride]	254 to 258 °C (dec.)
CC(C)C(=O)N1CC[C@H](NC(=O)c2cc3cc(Cl)ccc3[nH]2)[C@H](NC(=O)c2nc3c(s2)CN(C)CC3)C1 (relative stereo) (as salt: hydrochloride)	266 to 272 °C (dec.)
COCCOC(=O)N1CC[C@H](NC(=O)c2cc3cc(Cl)ccc3[nH]2)[C@H](NC(=O)c2nc3c(s2)CN(C)CC3)C1 (relative stereo) (as salt: hydrochloride)	224 to 226 °C (dec.)
CN1CCc2nc(C(=O)N[C@@H]3CN(C(=O)C(C)(C)O)CC[C@@H]3NC(=O)c3cc4cc(Cl)ccc4[nH]3)sc2C1 (relative stereo) [Example 149, N-[(3R*,4S*)-4-{[(5-Chloroindol-2-yl)carbonyl]amino}-1-(2-hydroxy-2-methylpropanoyl)piperidin-3-yl]-5-methyl-4,5,6,7-tetrahydrothiazolo[5,4-c]pyridine-2-carboxamide]	190 °C (dec.)
CN1CCc2nc(C(=O)N[C@@H]3CN(C(=O)C4CC(O)C4)CC[C@@H]3NC(=O)c3cc4cc(Cl)ccc4[nH]3)sc2C1 (relative stereo) (as salt: hydrochloride)	200 °C (dec.)
CCOC(=O)N1CC[C@@H](NC(=O)c2nc3c(s2)CN(C)CC3)[C@@H](NC(=O)c2cc3cc(Cl)ccc3[nH]2)C1 (relative stereo) (as salt: hydrochloride)	213 to 225 °C (dec.)
CN1CCc2nc(C(=O)N[C@@H]3CNCC[C@@H]3NC(=O)c3cc4cc(Cl)ccc4[nH]3)sc2C1 (relative stereo) (as salt: hydrochloride) [Example 118, N-((3R*,4S*)-4-{[(5-Chloroindol-2-yl)carbonyl]amino}-piperidin-3-yl)-5-methyl-4,5,6,7-tetrahydrothiazolo[5,4-c]pyridine-2-carboxamide dihydrochloride]	240 to 258 °C (dec.)
CN1CCc2nc(C(=O)N[C@@H]3CN(C(=O)C4CCOCC4)CC[C@@H]3NC(=O)c3cc4cc(Cl)ccc4[nH]3)sc2C1 (relative stereo) (as salt: hydrochloride)	225 to 248 °C (dec.)
CN1CCc2nc(C(=O)N[C@@H]3CS(=O)(=O)CC[C@@H]3NC(=O)c3cc4cc(Cl)ccc4[nH]3)sc2C1 (relative stereo) (as salt: hydrochloride) [Example 178, N-((3R*,4R*)-4-{[(5-Chloroindol-2-yl)carbonyl]amino}-1,1-dioxohexahydro-1-thiopyran-3-yl)-5-methyl-4,5,6,7-tetrahydrothiazolo[5,4-c]pyridine-2-carboxamide hydrochloride]	241 to 244 °C
